Laboratory results reported in patent US20260317324A1, “BIFUNCTIONAL COMPOUNDS FOR DEGRADING BRAF VIA UBIQUITIN PROTEOSOME PATHWAY” (Nurix Therapeutics, Inc., priority 2023, published 2026).

Columns and labels:
Format in all cases: cell-based
BRAF D594G = molecular target: T1, BRAF D594G (Homo sapiens, UniProt P15056, D594G); test: BRAF HiBiT degradation assay, C-terminal HiBiT-tagged BRAF D594G overexpressed in HCT-116 BRAF−/− cells (clone 63), Nano-Glo HiBiT Lytic assay
T1 construct: Horizon Discovery (HCT-116 BRAF−/− cells); host or cells: HCT-116 BRAF−/− cells, clone 63, lentiviral transduction
Outline: (§1)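 Degradation was read by Nano-Glo HiBiT lytic luminescence, normalised to DMSO-treated tagged cells with wildtype HCT-116 as background. Test cells were lentiviral clones of HCT-116 BRAF−/− carrying HiBiT-tagged mutants in RPMI/10% FBS, given compound at 0.01 nM–1 μM in duplicate. Outputs are the curve-fitted concentration giving 50% degradation and the maximal observed degradation.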

BRAF V600E = molecular target: T2, BRAF V600E (Homo sapiens, UniProt P15056, V600E); test: BRAF HiBiT degradation assay, C-terminal HiBiT-tagged BRAF V600E A375 cells (clone 1F10), Nano-Glo HiBiT Lytic assay; conditions: for Dmax: A-375
T2 construct: endogenous C-terminal HiBiT fusion tag on BRAF V600E allele; endogenous in cells; host or cells: A375 clone 1F10 (CRISPR-Cas9 knock-in of the HiBiT tag; parental A375 from ATCC)
Outline: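 Luminescence from the Nano-Glo HiBiT lytic read-out gave % BRAF V600E remaining versus DMSO-treated tagged cells, with untagged A375 as background. Clone 1F10 cells (10,000/well, 24 h pre-culture) received compound at 1 μM–0.01 nM in half-log steps, 0.2% DMSO; curve fits gave DC50 at Y=50, plus observed Dmax.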

BRAF G469A = molecular target: T3, BRAF G469A (Homo sapiens, UniProt P15056, G469A); test: BRAF HiBiT degradation assay, C-terminal HiBiT-tagged BRAF G469A overexpressed in HCT-116 BRAF−/− cells (clone 34), Nano-Glo HiBiT Lytic assay
T3 construct: Horizon Discovery (HCT-116 BRAF−/− cells); host or cells: HCT-116 BRAF−/− cells, clone 34, lentiviral transduction
Outline: as §1

BRAF G466V = molecular target: T4, BRAF G466V (Homo sapiens, UniProt P15056, G466V); test: BRAF HiBiT degradation assay, C-terminal HiBiT-tagged BRAF G466V overexpressed in HCT-116 BRAF−/− cells (clone 8), Nano-Glo HiBiT Lytic assay
T4 construct: Horizon Discovery (HCT-116 BRAF−/− cells); host or cells: HCT-116 BRAF−/− cells, clone 8, lentiviral transduction
Outline: as §1

[1] = BRAF D594G, DC50 at 50%: fitted conc. at Y=50
[2] = HCT-116, BRAF D594G, percentage protein degraded at maximal compound effect relative to DMSO
[3] = A375 (BRAF V600E), DC50 at 50%: fitted conc. at Y=50
[4] = A375 (BRAF V600E), percentage protein degraded at maximal compound effect relative to DMSO
[5] = Class 2, BRAF G469A, DC50 at 50%: fitted conc. at Y=50
[6] = HCT-116, Class 2, BRAF G469A, percentage protein degraded at maximal compound effect relative to DMSO
[7] = BRAF G466V, DC50 at 50%: fitted conc. at Y=50
[8] = HCT-116, BRAF G466V, percentage protein degraded at maximal compound effect relative to DMSO
[9] = BRAF D594G (Class 3), HCT-116 BRAF−/− cells, DC50 at 50% degradation
[10] = BRAF D594G (Class 3), HCT-116 BRAF−/− cells, observed Dmax relative to DMSO control
[11] = A375 (BRAF V600E, Class 1), DC50 at 50% degradation
[12] = A375 (BRAF V600E, Class 1), observed Dmax, % protein degraded relative to DMSO control
[13] = BRAF G469A (Class 2), HCT-116 BRAF−/− cells, DC50 at 50% degradation
[14] = BRAF G469A (Class 2), HCT-116 BRAF−/− cells, observed Dmax relative to DMSO control
[15] = BRAF G466V (Class 3), HCT-116 BRAF−/− cells, DC50 at 50% degradation
[16] = BRAF G466V (Class 3), HCT-116 BRAF−/− cells, observed Dmax relative to DMSO control

T1 sequence (P15056 whole entry D594G): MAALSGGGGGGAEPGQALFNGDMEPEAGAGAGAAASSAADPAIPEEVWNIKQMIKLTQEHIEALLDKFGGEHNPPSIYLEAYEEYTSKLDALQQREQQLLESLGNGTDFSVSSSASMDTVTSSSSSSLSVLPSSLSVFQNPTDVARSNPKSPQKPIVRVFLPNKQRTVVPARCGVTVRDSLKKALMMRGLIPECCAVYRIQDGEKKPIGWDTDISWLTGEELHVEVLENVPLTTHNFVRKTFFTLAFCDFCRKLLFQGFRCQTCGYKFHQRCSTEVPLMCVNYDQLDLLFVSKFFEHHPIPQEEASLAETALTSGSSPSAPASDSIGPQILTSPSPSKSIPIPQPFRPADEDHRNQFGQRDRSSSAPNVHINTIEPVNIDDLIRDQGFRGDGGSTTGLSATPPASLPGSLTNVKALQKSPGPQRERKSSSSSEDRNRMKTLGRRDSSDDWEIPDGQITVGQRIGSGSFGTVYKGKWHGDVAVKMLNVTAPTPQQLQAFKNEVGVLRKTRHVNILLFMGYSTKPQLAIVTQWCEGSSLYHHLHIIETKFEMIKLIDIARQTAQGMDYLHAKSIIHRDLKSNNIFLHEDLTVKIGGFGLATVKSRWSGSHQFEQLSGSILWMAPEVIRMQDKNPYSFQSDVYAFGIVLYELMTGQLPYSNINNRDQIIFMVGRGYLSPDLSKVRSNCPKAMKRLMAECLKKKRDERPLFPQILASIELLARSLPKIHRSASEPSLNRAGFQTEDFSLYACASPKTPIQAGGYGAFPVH
T2 sequence (P15056 whole entry V600E, the tested form may be a part): as the sequence (P15056 whole entry D594G) above, with G594D, V600E counted along it
T4 sequence (P15056 whole entry G466V): as the sequence (P15056 whole entry D594G) above, with G466V, G594D counted along it
T3 sequence (P15056 whole entry G469A): as the sequence (P15056 whole entry D594G) above, with G469A, G594D counted along it

Row | SMILES | DC50 (BRAF D594G; [1]) [nM] | Dmax (BRAF D594G; [2]) [%] | DC50 (BRAF V600E; [3]) [nM] | Dmax (BRAF V600E; [4]) [%] | DC50 (BRAF G469A; [5]) [nM] | Dmax (BRAF G469A; [6]) [%] | DC50 (BRAF G466V; [7]) [nM] | Dmax (BRAF G466V; [8]) [%] | DC50 (BRAF D594G; [9]) [nM] | Dmax (BRAF D594G; [10]) [%] | DC50 (BRAF V600E; [11]) [nM] | Dmax (BRAF V600E; [12]) [%] | DC50 (BRAF G469A; [13]) [nM] | Dmax (BRAF G469A; [14]) [%] | DC50 (BRAF G466V; [15]) [nM] | Dmax (BRAF G466V; [16]) [%]
1 | CCCS(=O)(=O)Nc1cccc(-c2nc(C3CCN(C(=O)C4CCN(CC5CCN(c6ccc(C7CCC(=O)NC7=O)cn6)CC5)CC4)CC3)sc2-c2ccncn2)c1F (racemic) [Compound 221, Rac-N-{3-[2-(1-{1-[(1-{5-[(3R)-2,6-dioxopiperidin-3-yl]pyridin-2-yl}piperidin-4-yl)methyl]piperidine-4-carbonyl}piperidin-4-yl)-5-(pyrimidin-4-yl)-1,3-thiazol-4-yl]-2-fluorophenyl}propane-1-sulfonamide] | > 500 | 30 to 70 | 10 to 50 | > 70 | > 500 | 30 to 70 | > 500 | 30 to 70 |  |  |  |  |  |  |  | 
2 | CCCS(=O)(=O)Nc1cccc(-c2nc(C3CCN(C(=O)C4CCN(C(=O)C5CCN(c6ccc(C7CCC(=O)NC7=O)cn6)CC5)CC4)CC3)sc2-c2ccnc(NC)n2)c1F (racemic) [Compound 212, Rac-N-[3-(2-{1-[1-(1-{5-[(3R)-2,6-dioxopiperidin-3-yl]pyridin-2-yl}piperidine-4-carbonyl)piperidine-4-carbonyl]piperidin-4-yl}-5-[2-(methylamino)pyrimidin-4-yl]-1,3-thiazol-4-yl)-2-fluorophenyl]propane-1-sulfonamide] | < 10 | 30 to 70 | < 10 | > 70 | 10 to 50 | 30 to 70 | < 10 | 30 to 70 |  |  |  |  |  |  |  | 
3 | CCCS(=O)(=O)Nc1cccc(-c2nc(C(C)(C)C)sc2-c2ccnc(Nc3ccc(N4CCN(CC5CCN(c6ccc(C7CCC(=O)NC7=O)cn6)CC5)CC4)c(F)c3)n2)c1F (racemic) [Compound 45, Rac-N-[3-(2-tert-butyl-5-{2-[(4-{4-[(1-{5-[(3R)-2,6-dioxopiperidin-3-yl]pyridin-2-yl}piperidin-4-yl)methyl]piperazin-1-yl}-3-fluorophenyl)amino]pyrimidin-4-yl}-1,3-thiazol-4-yl)-2-fluorophenyl]propane-1-sulfonamide] | 10 to 50 | 30 to 70 | 10 to 50 | > 70 | > 500 | 30 to 70 | < 10 | > 70 |  |  |  |  |  |  |  | 
4 | CCN(C)S(=O)(=O)Nc1cccc(-c2nc(C)sc2-c2ccnc(Nc3ccc(N4CCN(CC5CCN(c6ccc([C@H]7CCC(=O)NC7=O)cc6)CC5)CC4)cn3)n2)c1F [Compound 41, (3R)-3-{4-[4-({4-[6-({4-[4-(3-{[ethyl(methyl)sulfamoyl]amino}-2-fluorophenyl)-2-methyl-1,3-thiazol-5-yl]pyrimidin-2-yl}amino)pyridin-3-yl]piperazin-1-yl}methyl)piperidin-1-yl]phenyl}piperidine-2,6-dione] | 10 to 50 | 30 to 70 | < 10 | > 70 | 10 to 50 | 30 to 70 | 50 to 500 | 30 to 70 |  |  |  |  |  |  |  | 
5 | CCCS(=O)(=O)Nc1cccc(-c2nc(C(C)(C)C)sc2-c2ccnc(Nc3ccc(C4CCN(CC5CCN(c6cncc(C7CCC(=O)NC7=O)c6)CC5)CC4)cc3)n2)c1F (racemic) [Compound 177, Rac-N-[3-(2-tert-butyl-5-{2-[(4-{1-[(1-{5-[(3R)-2,6-dioxopiperidin-3-yl]pyridin-3-yl}piperidin-4-yl)methyl]piperidin-4-yl}phenyl)amino]pyrimidin-4-yl}-1,3-thiazol-4-yl)-2-fluorophenyl]propane-1-sulfonamide] | > 500 | < 30 | 10 to 50 | > 70 | > 500 | < 30 | > 500 | < 30 |  |  |  |  |  |  |  | 

Continued, values first:

Row | DC50 (BRAF D594G; [1]) [nM] | Dmax (BRAF D594G; [2]) [%] | DC50 (BRAF V600E; [3]) [nM] | Dmax (BRAF V600E; [4]) [%] | DC50 (BRAF G469A; [5]) [nM] | Dmax (BRAF G469A; [6]) [%] | DC50 (BRAF G466V; [7]) [nM] | Dmax (BRAF G466V; [8]) [%] | DC50 (BRAF D594G; [9]) [nM] | Dmax (BRAF D594G; [10]) [%] | DC50 (BRAF V600E; [11]) [nM] | Dmax (BRAF V600E; [12]) [%] | DC50 (BRAF G469A; [13]) [nM] | Dmax (BRAF G469A; [14]) [%] | DC50 (BRAF G466V; [15]) [nM] | Dmax (BRAF G466V; [16]) [%] | SMILES
6 |  |  |  |  |  |  |  |  | < 10 | 30 to 70 | < 10 | > 70 | < 10 | 30 to 70 | < 10 | > 70 | O=C1CC[C@H](c2ccc(N3CCC(CN4CCN(c5ccc(-n6cc(-c7cc(Cl)cc(NS(=O)(=O)N8CCCC8)c7F)c(-c7ccncc7)n6)cc5)CC4)CC3)cc2)C(=O)N1 [Compound 282, N-{5-chloro-3-[1-(4-{4-[(1-{4-[(3R)-2,6-dioxopiperidin-3-yl]phenyl}piperidin-4-yl)methyl]piperazin-1-yl}phenyl)-3-(pyridin-4-yl)-1H-pyrazol-4-yl]-2-fluorophenyl}pyrrolidine-1-sulfonamide]
7 |  |  |  |  |  |  |  |  | < 10 | 30 to 70 | < 10 | > 70 | < 10 | > 70 | < 10 | > 70 | O=C1CC[C@H](c2ccc(N3CCC(CN4CCN(c5ccc(-n6cc(-c7cc(Cl)cc(NS(=O)(=O)N8CC(F)C8)c7F)c(-c7ccncc7)n6)cc5)CC4)CC3)nc2)C(=O)N1 [Compound 331, N-{5-chloro-3-[1-(4-{4-[(1-{5-[(3R)-2,6-dioxopiperidin-3-yl]pyridin-2-yl}piperidin-4-yl)methyl]piperazin-1-yl}phenyl)-3-(pyridin-4-yl)-1H-pyrazol-4-yl]-2-fluorophenyl}-3-fluoroazetidine-1-sulfonamide]
8 |  |  |  |  |  |  |  |  | < 10 | 30 to 70 | < 10 | > 70 | 10 to 50 | > 70 | < 10 | > 70 | O=C1CCC(c2ccc(N3CCC(CN4CCN(c5ccc(-n6cc(-c7cc(Cl)cc(NS(=O)(=O)N8CCCC8)c7F)c(-c7ccncc7)n6)c(F)c5)CC4)CC3)nc2)C(=O)N1 (racemic) [Compound 266, Rac-(R)—N-(5-chloro-3-(1-(4-(4-((1-(5-(2,6-dioxopiperidin-3-yl)pyridin-2-yl)piperidin-4-yl)methyl)piperazin-1-yl)-2-fluorophenyl)-3-(pyridin-4-yl)-1H-pyrazol-4-yl)-2-fluorophenyl)pyrrolidine-1-sulfonamide]
9 |  |  |  |  |  |  |  |  | > 500 | < 30 | < 10 | > 70 | > 500 | < 30 | > 500 | 30 to 70 | O=C1CCC(c2ccc(N3CCC(CN4CCCN(c5ccc(-n6cc(-c7cc(Cl)cc(NS(=O)(=O)N8CCCC8)c7F)c(-c7ccncc7)n6)c(F)c5)CC4)CC3)nc2)C(=O)N1 (racemic) [Compound 345, Rac-N-{5-chloro-3-[1-(4-{4-[(1-{5-[(3R)-2,6-dioxopiperidin-3-yl]pyridin-2-yl}piperidin-4-yl)methyl]-1,4-diazepan-1-yl}-2-fluorophenyl)-3-(pyridin-4-yl)-1H-pyrazol-4-yl]-2-fluorophenyl}pyrrolidine-1-sulfonamide]
10 |  |  |  |  |  |  |  |  | 10 to 50 | 30 to 70 | 10 to 50 | > 70 | > 500 | 30 to 70 | 50 to 500 | 30 to 70 | CCN(C)S(=O)(=O)Nc1cc(Cl)cc(-c2cn(-c3ccc(N4CCN(CC5CCN(c6ccc(N7CCC(=O)NC7=O)cc6)CC5)CC4)cn3)nc2-c2ccncc2)c1F [Compound 311, 1-(4-{4-[(4-{6-[4-(5-chloro-3-{[ethyl(methyl)sulfamoyl]amino}-2-fluorophenyl)-3-(pyridin-4-yl)-1H-pyrazol-1-yl]pyridin-3-yl}piperazin-1-yl)methyl]piperidin-1-yl}phenyl)-1,3-diazinane-2,4-dione]
